Experimental data as given in patent US20120157401A1, “METHODS FOR TREATING NEUROFIBROMATOSIS” (PTC Therapeutics, Inc., priority 2009, published 2012).
pEC50: −log10 of the molar value. Where two headings read alike, the source gives them in different places.

Test system: hypoxia-inducible endogenous VEGF expression
Test: Hypoxia-inducible endogenous VEGF expression ELISA in HeLa cells, dose-response EC50 (Table 3)
Format: cell-based, human
Settings: for pEC50: HeLa cells, hypoxic conditions (1% O2), read-out: ELISA EC50; for EC50: HeLa, read-out: ELISA EC50 μM
Procedure: The ability of the Compounds to modulate hypoxia-inducible endogenous VEGF expression may be analyzed as follows. VEGF protein levels may be monitored by an ELISA assay (R&D Systems). Briefly, HeLa cells may be cultured for 24-48 hours under hypoxic conditions (1% O2, 5% CO2, balanced with nitrogen) in the presence or absence of a Compound. The conditioned media may then be assayed by ELISA, and the concentration of VEGF calculated from the standard ELISA curve of each assay.
A dose-response analysis may be performed using the ELISA assay and conditions described above. The conditions for the dose-response ELISA are analogous to those described above. A series of, e.g., seven different concentrations may be analyzed. In parallel, a dose-response cytotoxicity assay may be performed using Cell Titer Glo (Promega) under the same conditions as the ELISA to ensure that the inhibition of VEGF expression was not due to the cytotoxicity.

[1] = Homo sapiens, VEGF ELISA of conditioned media
[2] = Homo sapiens, 24-48 hours, VEGF in conditioned media

For `[H]/N=c1\sc(C)cn1CCOc1ccc(C2c3[nH]c4ccc(Cl)cc4c3CCN2C(=O)Oc2ccc(F)cc2)cc1` (stereo not shown) [Compound 1392], the pEC50 [1] was > 8.10.

`COc1ccc(C2c3[nH]c4ccc(OC)cc4c3CCN2C(=O)Oc2ccc(Cl)cc2)cc1` (stereo not shown) [Compound 614] was tested, and the pEC50 [2] was 6.00 to 6.70.

`CCS(=O)(=O)Nc1ccc(C2c3[nH]c4ccc(Cl)cc4c3CCN2C(=O)Oc2ccc(Cl)cc2)cc1` (stereo not shown) [Compound 958] showed a pEC50 [2] of 7.40 to 8.10.

For `CC1(COc2ccc([C@H]3c4[nH]c5ccc(Cl)cc5c4CCN3C(=O)Oc3ccc(Cl)cc3)cc2)COC(C)(C)OC1` [Compound 1229], the pEC50 [2] was > 8.10.

For `O=C(Oc1ccc(Cl)cc1)N1CCc2c([nH]c3ccc(Cl)cc23)C1c1ccc(OCCCOCCN2CCOCC2)cc1` (stereo not shown) [Compound 1555], the EC50 (Homo sapiens) was < 0.008 µM.

In the case of `COc1ccc(C2c3[nH]c4ccc(Cl)cc4c3CCN2C(=O)O[C@H]2C[C@@H](C)CC[C@@H]2C(C)C)cc1` (stereo partly shown) [Compound 192], the pEC50 [2] was 6.00 to 6.70.

With `Cc1ccc(OC(=O)N2CCc3c([nH]c4ccc(Cl)cc34)C2c2ccc(OCC(O)CO)cc2)cc1` (stereo not shown) [Compound 631] the pEC50 [2] was > 8.10.

In the case of `COCC(=O)NCC(O)CCOc1ccc([C@H]2c3[nH]c4ccc(Cl)cc4c3CCN2C(=O)Oc2ccc(C)cc2)cc1` (stereo partly shown) [Compound 1301], the pEC50 [2] was 7.40 to 8.10.

`Cc1ccc(OC(=O)N2CCc3c([nH]c4ccc(Cl)cc34)[C@@H]2c2ccc(OCCC(O)Cn3cncn3)cc2)cc1` (stereo partly shown) [Compound 1291] was tested, and the pEC50 [2] was 7.40 to 8.10.

In the case of `COc1ccc(C2c3[nH]c4ccc(Cl)cc4c3CCN2C(=O)Oc2ccccc2)cc1` (stereo not shown) [Compound 60], the pEC50 [2] was 7.40 to 8.10.

`COCCOc1ccc(C2c3[nH]c4ccc(Cl)cc4c3CCN2C(=O)Oc2ccc(OC)cc2)cc1` (stereo not shown) [Compound 465] gave a pEC50 [2] of 7.40 to 8.10.

With `O=C(Oc1ccccc1)N1CCc2c([nH]c3ccc(Cl)cc23)C1c1ccc(OCC2OCCO2)cc1` (stereo not shown) [Compound 1050] the pEC50 [2] was > 8.10.

Compound `O=C(Oc1ccc(F)cc1)N1CCc2c([nH]c3ccc(Cl)cc23)C1c1ccc(OCCCN2CCSCC2)cc1` (stereo not shown) [Compound 991] has an EC50 (Homo sapiens) of 0.04 to 0.2 µM.

With `CN1CCCC(COc2ccc(C3c4[nH]c5ccc(Cl)cc5c4CCN3C(=O)Oc3ccccc3)cc2)C1` (stereo not shown) [Compound 952] the EC50 (Homo sapiens) was 0.008 to 0.04 µM.

For `COCC(=O)NCC(O)CCOc1ccc([C@H]2c3[nH]c4ccc(Cl)cc4c3CCN2C(=O)Oc2ccc(Cl)cc2)cc1` (stereo partly shown) [Compound 1278], the pEC50 [2] was > 8.10.

For `O=C(Oc1ccc(Cl)cc1)N1CCc2c([nH]c3ccc(Cl)cc23)C1c1ccc(OCCCN2CCC(O)CC2)cc1` (stereo not shown) [Compound 1537], the EC50 (Homo sapiens) was < 0.008 µM.

For `O=C(Oc1ccccc1)N1CCc2c([nH]c3ccc(Cl)cc23)C1c1ccc(OCCCn2nccn2)cc1` (stereo not shown) [Compound 1078], the pEC50 [2] was 7.40 to 8.10.

`COc1cc(C2c3[nH]c4ccc(Cl)cc4c3CCN2C(=O)Oc2ccc(Cl)cc2)ccc1OCCCCN1CCOCC1` (stereo not shown) [Compound 1094] gave an EC50 (Homo sapiens) of 0.008 to 0.04 µM.

With `COCCOc1ccc(C2c3[nH]c4ccc(Cl)cc4c3CCN2C(=O)Oc2ccc(Cl)cc2)cc1` (stereo not shown) [Compound 418] the pEC50 [2] was > 8.10.

With `COCCOCCOc1ccc(C2c3[nH]c4ccc(Cl)cc4c3CCN2C(=O)Oc2ccc(Br)cc2)cc1` (stereo not shown) [Compound 680] the pEC50 [2] was > 8.10.

For `COCCOCCOc1ccc(C2c3[nH]c4ccc(Cl)cc4c3CCN2C(=O)Oc2ccc([N+](=O)[O-])cc2)cc1` (stereo not shown) [Compound 681], the pEC50 [2] was 7.40 to 8.10.

`N#CCOc1ccc(C2c3[nH]c4ccc(Cl)cc4c3CCN2C(=O)Oc2ccc(Br)cc2)cc1` (stereo not shown) [Compound 1547] was tested, and the pEC50 [1] was > 8.10.

Compound `COc1ccc(C2c3[nH]c4ccc(Cl)cc4c3CCN2C(=O)Oc2ccc(Cl)cc2)cc1OCCCCn1cncn1` (stereo not shown) [Compound 1091] has a pEC50 [2] of 6.00 to 6.70.

`O=C(Oc1ccc(Cl)cc1)N1CCc2c([nH]c3ccc(Cl)cc23)C1c1ccc(OCCCO)cc1` (stereo not shown) [Compound 1111] was tested, and the pEC50 [2] was > 8.10.

With `O=C(Oc1ccc(Cl)cc1)N1CCc2c([nH]c3ccc(Cl)cc23)[C@@H]1c1ccc(OCCCNCCO)cc1` [Compound 1257] the EC50 (Homo sapiens) was 0.008 to 0.04 µM.

For `O=C(Oc1ccc(Cl)cc1)N1CCc2c([nH]c3ccc(Cl)cc23)C1c1ccc(OCCCn2ccnc2)cc1` (stereo not shown) [Compound 917], the pEC50 [2] was > 8.10.

`O=C(Oc1ccc(Cl)cc1)N1CCc2c([nH]c3ccc(Br)cc23)C1c1ccc(C(F)(F)F)cc1` (stereo not shown) [Compound 570] was tested, and the pEC50 (24-48 hours, VEGF in conditioned media) was > 8.10.

`O=C1NC2CSC(CCCCC(=O)OCCOc3ccc(C4c5[nH]c6ccc(Cl)cc6c5CCN4C(=O)Oc4ccc(Cl)cc4)cc3)C2N1` (stereo not shown) [Compound 544] was tested, and the EC50 (Homo sapiens) was < 0.008 µM.

In the case of `CC(C)C(=O)NCC(O)COc1ccc(C2c3[nH]c4ccc(Cl)cc4c3CCN2C(=O)Oc2ccc(Cl)cc2)cc1` (stereo not shown) [Compound 1559], the pEC50 [1] was 7.40 to 8.10.

For `COc1ccc(OC(=O)N2CCc3c([nH]c4ccc(Cl)cc34)C2c2ccc(OCC[C@H]3COC(C)(C)O3)cc2)cc1` (stereo partly shown) [Compound 1171], the pEC50 [2] was > 8.10.

`CNCC(O)COc1ccc(C2c3[nH]c4ccc(Cl)cc4c3CCN2C(=O)Oc2ccc(Cl)cc2)cc1` (stereo not shown) [Compound 850] was tested, and the EC50 (Homo sapiens) was 0.04 to 0.2 µM.

With `O=C(Oc1ccc(Cl)cc1)N1CCc2c([nH]c3ccc(Cl)cc23)C1c1ccc(OCCCN2CC[C@@H](O)C2)cc1` (stereo partly shown) [Compound 1476] the EC50 (Homo sapiens) was 0.04 to 0.2 µM.

With `O=C(Oc1ccccc1)N1CCc2c([nH]c3ccc(Cl)cc23)C1c1ccc(OCC[C@H](O)CO)cc1` (stereo partly shown) [Compound 1178] the pEC50 [2] was > 8.10.

In the case of `CC(C)S(=O)(=O)NCC(O)COc1ccc(C2c3[nH]c4ccc(Cl)cc4c3CCN2C(=O)Oc2ccc(F)cc2)cc1` (stereo not shown) [Compound 1557], the pEC50 [1] was 6.00 to 6.70.

For `COc1ccc(C2c3[nH]c4ccc(Cl)cc4c3CCN2C(=O)Oc2ccc(C)cc2)cc1` (stereo not shown) [Compound 17], the pEC50 [2] was > 8.10.

For `O=C(Oc1ccc(Cl)cc1)N1CCc2c([nH]c3ccc(Cl)cc23)[C@@H]1c1ccc(OCCC(O)CN2CCOCC2)cc1` (stereo partly shown) [Compound 1279], the EC50 (Homo sapiens) was < 0.008 µM.

Work on `O=C(Oc1ccc(Cl)cc1)N1CCc2c([nH]c3ccc(Cl)cc23)C1c1ccc(OCCn2cncn2)cc1` (stereo not shown) [Compound 840] yielded a pEC50 [2] of 7.40 to 8.10.

With `CN1C(=O)CN(CCCOc2ccc(C3c4[nH]c5ccc(Cl)cc5c4CCN3C(=O)Oc3ccc(Cl)cc3)cc2)C1=O` (stereo not shown) [Compound 1673] the pEC50 [1] was > 8.10.

Work on `O=C(Oc1ccc(F)cc1)N1CCc2c([nH]c3ccc(Cl)cc23)C1c1ccc(O)cc1` (stereo not shown) [Compound 575] yielded a pEC50 [2] of 6.00 to 6.70.

`Cc1ccc(OC(=O)N2CCc3c([nH]c4ccc(Cl)cc34)[C@@H]2c2ccc(OCCC(O)CN(CCO)CCO)cc2)cc1` (stereo partly shown) [Compound 1288] gave an EC50 (Homo sapiens) of 0.008 to 0.04 µM.

With `O=C(Oc1ccc(F)cc1)N1CCc2c([nH]c3ccc(Cl)cc23)C1c1ccc(OCC(O)Cn2ccnc2)cc1` (stereo not shown) [Compound 922] the pEC50 [2] was > 8.10.

In the case of `COc1ccc(OC(=O)N2CCc3c([nH]c4ccc(Cl)cc34)C2c2ccc(OCCCn3cncn3)cc2)cc1` (stereo not shown) [Compound 888], the pEC50 [2] was > 8.10.

In the case of `CCOC(=O)NCC(O)COc1ccc(C2c3[nH]c4ccc(Cl)cc4c3CCN2C(=O)Oc2ccc(Cl)cc2)cc1` (stereo not shown) [Compound 1562], the pEC50 [1] was 7.40 to 8.10.

For `CC1(C)OCC(COc2ccc([C@H]3c4[nH]c5ccc(Cl)cc5c4CCN3C(=O)Oc3ccc(Cl)cc3)cc2)CO1` [Compound 1207], the pEC50 [2] was > 8.10.

Compound `O=C(Oc1ccc(F)cc1)Oc1ccc(C2c3[nH]c4ccc(Cl)cc4c3CCN2C(=O)Oc2ccc(F)cc2)cc1` (stereo not shown) [Compound 576] has a pEC50 [2] of 6.70 to 7.40.

With `CS(=O)(=O)NCC(O)CCOc1ccc([C@H]2c3[nH]c4ccc(Cl)cc4c3CCN2C(=O)Oc2ccc(Cl)cc2)cc1` (stereo partly shown) [Compound 1667] the pEC50 [1] was > 8.10.

`COc1ccc(OC(=O)N2CCc3c([nH]c4ccc(Cl)cc34)[C@@H]2c2ccc(OCC(C)(CO)CO)cc2)cc1` [Compound 1337] was tested, and the pEC50 [1] was 7.40 to 8.10.

`COc1cc(C2c3[nH]c4ccc(Cl)cc4c3CCN2C(=O)Oc2ccc(Cl)cc2)ccc1OCCCN1CCOCC1` (stereo not shown) [Compound 1093] was tested, and the EC50 (Homo sapiens) was 0.008 to 0.04 µM.

`COCCN(CCCOc1cccc(C2c3[nH]c4ccc(Cl)cc4c3CCN2C(=O)Oc2ccc(F)cc2)c1)CCOC` (stereo not shown) [Compound 1119] was tested, and the EC50 (Homo sapiens) was 0.04 to 0.2 µM.
